Results: patent publication US12317891B2, “Protein product capable of immobilizing target and being cleared as required” (SHAANXI NORMAL UNIVERSITY, priority 2020, dated 2025)

Tested on: snails
Test: Insect control performance verification: cabbage leaves fed to snails
Assay type: in vivo
Conditions: leaves sprayed with 10 mg/mL suspension; 10 snails per group
Text: Cabbage leaves each at a size of 5 cm×5 cm were divided into four groups with four cabbage leaves in each group. […] The four groups of leaves were respectively administered to four groups of snails with 10 snails in each group. The consumption rate by the snails for the untreated cabbage leaf group was almost 100%. The consumption rate by the snails for the cabbage leaves simply sprayed with the imidacloprid suspension was about 30%. […] The consumption rate by the snails for the cabbage leaves that were first sprayed with the suspension of the protein product of the present disclosure and then treated with the Vc aqueous solution or the fruit and vegetable detergent was increased to 80%.

Q: Which “consumption rate of cabbage leaves by the snails” value does the source give for `O=[N+]([O-])NC1=NCCN1Cc1ccc(Cl)nc1` [imidacloprid] here?
A: about 30%
